Test results as given in publication PMC8222254, “Self-assembly of an anion receptor with metal-dependent kinase inhibition and potent in vitro anti-cancer properties” (Nature Communications, 2021).
Where “and” joins values, the source holds several entries; their conditions need not be identical. Equal entries are not always repeated. Where two headings read alike, the source gives them in different places.

Key:
Assay in all cases: Chemosensitivity, 96 h continuous exposure, MTT assay
Type in all cases: cell-based, human
ARPE-19 non-cancer cells = settings: for Relative potency (+ anion to no anion), Ratio + anion:no anion: ratio of IC50, ARPE-19
How it was run: (§1)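 Cells were seeded overnight at 37 °C (2 × 10^3/well; GBM1 at 3 × 10^3/well on poly-L-ornithine/laminin in Neurobasal with hFGF/rhEGF), then exposed to compound concentration ranges for 96 h. Viability was read by MTT (4 h, formazan in DMSO, A540) and IC50 taken from dose–response curves.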

H460 = settings: for IC50 / Selectivity indices relative to ARPE-19, Ratio + anion:no anion / Selectivity indices relative to MCF10A, Ratio + anion:no anion: H460; for Selectivity index (ARPE19): IC50 ARPE-19 / IC50 H460; for Selectivity index (MCF10A): IC50 MCF10A / IC50 H460; for Relative potency (+ anion to no anion), Ratio + anion:no anion: ratio of IC50, H460; for Selectivity indices relative to ARPE-19, Ratio + anion:no anion: ratio of SI (ARPE-19); for Selectivity indices relative to MCF10A, Ratio + anion:no anion: ratio of SI (MCF 10A)
How it was run: (§2)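 H460 lung and PSN1 pancreatic carcinoma lines, grown in RPMI-1640 with 10% FBS, were plated at 2 × 10^3 cells/well, dosed across a concentration range for 96 h, then given MTT for 4 h. Formazan absorbance at 540 nm gave IC50 values.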

HT-29 = settings: for Selectivity index (ARPE19): IC50 ARPE-19 / IC50 HT29; for Selectivity index (MCF10A): IC50 MCF10A / IC50 HT29; for Relative potency (+ anion to no anion), Ratio + anion:no anion: ratio of IC50, HT29; for Selectivity indices relative to ARPE-19, Ratio + anion:no anion: ratio of SI (ARPE-19); for Selectivity indices relative to MCF10A, Ratio + anion:no anion: ratio of SI (MCF 10A)
How it was run: as §1

PSN1 = settings: for Selectivity index (ARPE19): IC50 ARPE-19 / IC50 PSN1; for Selectivity index (MCF10A): IC50 MCF10A / IC50 PSN1; for IC50 / Selectivity indices relative to ARPE-19, Ratio + anion:no anion / Selectivity indices relative to MCF10A, Ratio + anion:no anion: PSN1; for Relative potency (+ anion to no anion), Ratio + anion:no anion: ratio of IC50, PSN1; for Selectivity indices relative to ARPE-19, Ratio + anion:no anion: ratio of SI (ARPE-19); for Selectivity indices relative to MCF10A, Ratio + anion:no anion: ratio of SI (MCF 10A)
How it was run: as §2

[1] = ARPE-19, mean of replicates, read-out: Mean IC50
[2] = ARPE-19, single replicate, read-out: IC50 values for each replicate
[3] = ARPE-19 non-cancer, read-out: Mean IC50 values
[4] = mean of replicates, read-out: Mean IC50
[5] = single replicate, read-out: IC50 values for each replicate
[6] = HT29, mean of replicates, read-out: Mean IC50
[7] = HT29, read-out: Mean IC50 values
[8] = HT-29, single replicate, read-out: IC50 values for each replicate

| Compound | IC50 (ARPE-19 non-cancer cells; [1]) [µM] | IC50 (ARPE-19 non-cancer cells; [2]) | IC50 (ARPE-19 non-cancer cells; [3]) [µM] | Relative potency (+ anion to no anion), Ratio + anion:no anion (ARPE-19 non-cancer cells) | IC50 (H460; [4]) [nM] | IC50 (H460; read-out: Mean IC50 values) [nM] | IC50 (H460; [5]) | Selectivity index (ARPE19) (H460) | Selectivity index (MCF10A) (H460) | Relative potency (+ anion to no anion), Ratio + anion:no anion (H460) | Selectivity indices relative to ARPE-19, Ratio + anion:no anion (H460) | IC50 (HT-29; [6]) [nM] | IC50 (HT-29; [7]) [nM] | IC50 (HT-29; [8]) | Selectivity index (ARPE19) (HT-29) | Selectivity index (MCF10A) (HT-29) | Relative potency (+ anion to no anion), Ratio + anion:no anion (HT-29) | Selectivity indices relative to ARPE-19, Ratio + anion:no anion (HT-29; HT29) | Selectivity indices relative to MCF10A, Ratio + anion:no anion (HT-29; HT29) | Selectivity index (ARPE19) (PSN1) | also measured |
| --- | --- | --- | --- | --- | --- | --- | --- | --- | --- | --- | --- | --- | --- | --- | --- | --- | --- | --- | --- | --- | --- |
| O=P([O-])([O-])Oc1ccccc1.[Cu+2].[Cu+2].[Cu+2].c1ccc(-c2csc(NCCN(CCNc3nc(-c4ccccn4)cs3)CCNc3nc(-c4ccccn4)cs3)n2)nc1.c1ccc(-c2csc(NCCN(CCNc3nc(-c4ccccn4)cs3)CCNc3nc(-c4ccccn4)cs3)n2)nc1 [[L2Cu3(O3POPh)]4+] | 115 | 179 µM and 157 µM and 60.7 µM and 64.1 µM | 115 | 2.19 | 198 | 198 | 122 nM and 234 nM and 163 nM and 228 nM and 245 nM | 582.02 | 259.98 | 0.72 | 3.052 | 695 | 695 | 687 nM and 844 nM and 642 nM and 195 nM and 1590 nM and 213 nM | 165.81 | 74.07 | 3.25 | 0.674 | 0.328 | 536.00 | Selectivity indices relative to MCF10A, Ratio + anion:no anion (H460): 1.487; Selectivity index (MCF10A) (PSN1): 239.43; IC50 (PSN1; [4]): 215 nM; IC50 (PSN1; read-out: Mean IC50 values): 215 nM; IC50 (PSN1; [5]): 195 nM and 219 nM and 229 nM; Relative potency (+ anion to no anion), Ratio + anion:no anion (PSN1): 0.0333; Selectivity indices relative to ARPE-19, Ratio + anion:no anion (PSN1): 65.686; Selectivity indices relative to MCF10A, Ratio + anion:no anion (PSN1): 32.009 |
| O=P([O-])([O-])[O-].[Cu+2].[Cu+2].[Cu+2].c1ccc(-c2csc(NCCN(CCNc3nc(-c4ccccn4)cs3)CCNc3nc(-c4ccccn4)cs3)n2)nc1.c1ccc(-c2csc(NCCN(CCNc3nc(-c4ccccn4)cs3)CCNc3nc(-c4ccccn4)cs3)n2)nc1 [[L2Cu3(PO4)]3+] | 164 | 144 µM and 157 µM and 173 µM and 182 µM | 164 | 3.11 | 1410 | 1410 | 592 nM and 533 nM and 1.4 µM and 2.22 µM and 504 nM and 1.98 µM (2×) and 2.1 µM | 115.82 | 34.92 | 5.12 | 0.607 | 326 | 326 | 224 nM and 262 nM and 594 nM and 323 nM and 229 nM | 502.36 | 151.48 | 1.52 | 2.043 | 0.672 | 9.29 | Selectivity indices relative to MCF10A, Ratio + anion:no anion (H460): 0.200; Selectivity index (MCF10A) (PSN1): 2.80; IC50 (PSN1; [4]): 17600 nM; IC50 (PSN1; read-out: Mean IC50 values): 17600 nM; IC50 (PSN1; [5]): 18400 nM and 18600 nM and 17500 nM and 15900 nM; Relative potency (+ anion to no anion), Ratio + anion:no anion (PSN1): 2.73; Selectivity indices relative to ARPE-19, Ratio + anion:no anion (PSN1): 1.138; Selectivity indices relative to MCF10A, Ratio + anion:no anion (PSN1): 0.374 |
| O=S(=O)([O-])[O-].[Cu+2].[Cu+2].[Cu+2].c1ccc(-c2csc(NCCN(CCNc3nc(-c4ccccn4)cs3)CCNc3nc(-c4ccccn4)cs3)n2)nc1.c1ccc(-c2csc(NCCN(CCNc3nc(-c4ccccn4)cs3)CCNc3nc(-c4ccccn4)cs3)n2)nc1 [[L2Cu3(SO4)]4+] | 120 | 126 µM and 121 µM and 113 µM | 120 | 2.29 | 252 | 252 | 438 nM and 207 nM and 188 nM and 219 nM and 227 nM and 234 nM | 477.42 | 197.35 | 0.91 | 2.504 | 188 | 188 | 88 nM and 240 nM and 182 nM | 639.95 | 264.53 | 0.88 | 2.602 | 1.173 | 246.54 | Selectivity indices relative to MCF10A, Ratio + anion:no anion (H460): 1.129; Selectivity index (MCF10A) (PSN1): 101.91; IC50 (PSN1; [4]): 488 nM; IC50 (PSN1; read-out: Mean IC50 values): 488 nM; IC50 (PSN1; [5]): 449 nM and 779 nM and 235 nM; Relative potency (+ anion to no anion), Ratio + anion:no anion (PSN1): 0.0756; Selectivity indices relative to ARPE-19, Ratio + anion:no anion (PSN1): 30.213; Selectivity indices relative to MCF10A, Ratio + anion:no anion (PSN1): 13.624 |
| O=P(O)(O)Oc1ccccc1.[Zn+2].[Zn+2].[Zn+2].c1ccc(-c2csc(NCCN(CCNc3nc(-c4ccccn4)cs3)CCNc3nc(-c4ccccn4)cs3)n2)nc1.c1ccc(-c2csc(NCCN(CCNc3nc(-c4ccccn4)cs3)CCNc3nc(-c4ccccn4)cs3)n2)nc1 [[L2Zn3(O3POPh)]4+] | 230 | 273 µM and 210 µM and 208 µM | 230 | 1.46 | 276 | 276 | 263 nM and 517 nM and 187 nM and 138 nM | 834.24 | 189.68 | 0.77 | 1.910 | 379 | 379 | 733 nM and 271 nM and 247 nM and 265 nM | 607.52 | 138.13 | 2.24 | 0.653 | 0.144 | 1338.66 | Selectivity index (MCF10A) (PSN1): 304.38; IC50 (PSN1; [4]): 172 nM; IC50 (PSN1; read-out: Mean IC50 values): 172 nM; IC50 (PSN1; [5]): 90 nM and 171 nM and 256 nM; activity relative to [L2Zn3(PO4)]3+ or [L2Zn3]6+ (PSN1; PSN1 cell line, anion pre-encapsulated): significantly more active; Relative potency (+ anion to no anion), Ratio + anion:no anion (PSN1): 0.04; Selectivity indices relative to ARPE-19, Ratio + anion:no anion (PSN1): 37.826; Selectivity indices relative to MCF10A, Ratio + anion:no anion (PSN1): 8.367 |
| CC(=O)[O-].CC(=O)[O-].CC(=O)[O-].O=P([O-])([O-])[O-].[Zn+2].[Zn+2].[Zn+2].c1ccc(-c2csc(NCCN(CCNc3nc(-c4ccccn4)cs3)CCNc3nc(-c4ccccn4)cs3)n2)nc1.c1ccc(-c2csc(NCCN(CCNc3nc(-c4ccccn4)cs3)CCNc3nc(-c4ccccn4)cs3)n2)nc1 [[L2Zn3(PO4)]3+] | 131 | 121 µM and 118 µM and 154 µM | 131 | 0.83 | 249 | 249 | 241 nM and 263 nM and 265 nM and 226 nM | 525.98 | 57.92 | 0.69 | 1.204 | 214 | 214 | 91 nM and 254 nM and 236 nM and 228 nM and 262 nM | 612.01 | 67.40 | 1.27 | 0.658 | 0.070 | 19.60 | Selectivity indices relative to MCF10A, Ratio + anion:no anion (H460): 0.129; Selectivity index (MCF10A) (PSN1): 2.16; IC50 (PSN1; [4]): 6680 nM; IC50 (PSN1; read-out: Mean IC50 values): 6680 nM; IC50 (PSN1; [5]): 6730 nM and 6480 nM and 6840 nM; Relative potency (+ anion to no anion), Ratio + anion:no anion (PSN1): 1.50; Selectivity indices relative to ARPE-19, Ratio + anion:no anion (PSN1): 0.554; Selectivity indices relative to MCF10A, Ratio + anion:no anion (PSN1): 0.059 |
